Measured values taken from patent US20250152585A1, “PHARMACEUTICAL COMPOUND” (Duke Street Bio Limited, priority 2022, published 2025).
Where two headings read alike, the source gives them in different places.

How the values were obtained:
[1] = target: T1, full length N-terminally FLAG-tagged PARP1 (Homo sapiens, UniProt P09874); experiment: PARP1 biochemical DELFIA assay (auto-PARylation); set-up: recombinant full length human N-terminally FLAG-tagged PARP1
[2] = target: T1, full length N-terminally FLAG-tagged PARP1; experiment: PARP1 probe displacement HTRF assay; conditions: for Selectivity: PARP1 over PARP2, ratio Kd (PARP2)/Kd (PARP1); for Kd: binned Kd
[3] = target: T2, N-terminally FLAG-tagged PARP2 (amino acids 1-583) (Homo sapiens, UniProt Q9UGN5); experiment: PARP2 probe displacement HTRF assay; assay type: binding; conditions: binned Kd
T2 construct: N-terminally FLAG-tagged PARP2 (amino acids 1-583)
T2 sequence (Q9UGN5 whole entry, the tested form may be a part): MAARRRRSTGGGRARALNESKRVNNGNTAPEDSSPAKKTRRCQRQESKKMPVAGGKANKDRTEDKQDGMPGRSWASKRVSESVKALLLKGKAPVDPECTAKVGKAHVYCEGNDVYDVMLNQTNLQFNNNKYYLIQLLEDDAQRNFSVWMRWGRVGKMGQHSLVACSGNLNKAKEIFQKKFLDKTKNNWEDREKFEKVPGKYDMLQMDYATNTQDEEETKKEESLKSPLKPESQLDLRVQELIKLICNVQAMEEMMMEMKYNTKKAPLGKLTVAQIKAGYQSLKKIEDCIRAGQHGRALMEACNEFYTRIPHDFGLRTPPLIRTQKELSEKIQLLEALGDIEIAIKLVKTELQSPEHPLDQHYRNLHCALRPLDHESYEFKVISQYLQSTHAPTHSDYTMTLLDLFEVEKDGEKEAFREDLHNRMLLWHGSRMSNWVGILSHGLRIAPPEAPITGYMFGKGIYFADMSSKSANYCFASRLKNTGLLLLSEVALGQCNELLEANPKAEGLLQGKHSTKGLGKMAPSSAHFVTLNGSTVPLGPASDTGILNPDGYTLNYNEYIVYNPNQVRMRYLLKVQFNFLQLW
Method: Data analysis was performed identical as for PARP1.

[4] = binned IC50, biochemical auto-PARylation assay
[5] = read-out: PARP1 HTRF, probe displacement HTRF
[6] = PARP1 HTRF, probe displacement HTRF
[7] = binned IC50, PARP1 biochemical DELFIA assay
[8] = read-out: PARP1 HTRF, PARP1 probe displacement HTRF

T1 sequence (P09874 whole entry): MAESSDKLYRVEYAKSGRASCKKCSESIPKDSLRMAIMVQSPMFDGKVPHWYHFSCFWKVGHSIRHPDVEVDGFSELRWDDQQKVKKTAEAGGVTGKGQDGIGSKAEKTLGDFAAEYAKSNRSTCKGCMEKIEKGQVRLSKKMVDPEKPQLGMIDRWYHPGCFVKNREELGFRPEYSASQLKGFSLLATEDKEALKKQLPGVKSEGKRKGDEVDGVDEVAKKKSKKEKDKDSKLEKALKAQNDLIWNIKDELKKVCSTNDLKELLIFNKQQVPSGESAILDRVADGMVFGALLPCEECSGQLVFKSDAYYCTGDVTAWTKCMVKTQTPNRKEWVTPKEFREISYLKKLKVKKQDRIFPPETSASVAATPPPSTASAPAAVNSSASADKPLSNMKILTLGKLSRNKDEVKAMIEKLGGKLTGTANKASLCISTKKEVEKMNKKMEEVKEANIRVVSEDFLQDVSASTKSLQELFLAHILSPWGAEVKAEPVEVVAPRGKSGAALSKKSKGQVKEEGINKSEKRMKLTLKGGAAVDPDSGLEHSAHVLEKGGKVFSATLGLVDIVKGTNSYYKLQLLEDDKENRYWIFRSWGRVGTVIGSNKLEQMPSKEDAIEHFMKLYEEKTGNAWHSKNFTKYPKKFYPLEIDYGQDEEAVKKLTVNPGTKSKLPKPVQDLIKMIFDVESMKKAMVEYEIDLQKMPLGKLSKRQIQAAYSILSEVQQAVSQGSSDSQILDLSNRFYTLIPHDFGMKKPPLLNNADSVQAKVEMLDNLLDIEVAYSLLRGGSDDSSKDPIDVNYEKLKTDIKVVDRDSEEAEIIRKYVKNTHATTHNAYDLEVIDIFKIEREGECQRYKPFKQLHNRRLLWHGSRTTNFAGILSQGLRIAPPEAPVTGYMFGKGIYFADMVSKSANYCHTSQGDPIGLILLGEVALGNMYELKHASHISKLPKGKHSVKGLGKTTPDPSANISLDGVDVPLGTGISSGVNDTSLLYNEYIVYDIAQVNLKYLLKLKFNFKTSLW

Row | Compound | IC50 [1, 4] | Selectivity ([2]; probe displacement HTRF) | Kd [2, 5] | Kd ([3]; probe displacement HTRF) | Kd [2, 6] | IC50 [1, 7] | Kd [2, 8] | Kd ([3]; PARP2 probe displacement HTRF) | Kd ([2]; PARP1 HTRF, PARP1 probe displacement HTRF)
1 | CNC(=O)c1ccc(N2CCC(N3CCC(c4cnc(CC(F)(F)F)c(=O)[nH]4)C3)CC2)cn1 (single isomer, unassigned) [Compound 287a] | 10 to 100 nM | ++ (++ indicates a value of 50 to less than 100) | 10 to 100 nM | > 10000 nM |  |  |  |  | 
2 | CNC(=O)c1ccc(N2CCC(N3CCC(c4nc5ncncc5c(=O)[nH]4)C3)CC2)cn1 (racemic) [Compound 335rac] | 100 to 1000 nM | + (+ indicates a value of 10 to less than 50) | 100 to 1000 nM | > 10000 nM |  |  |  |  | 
3 | CNC(=O)c1ccc(N2CCC(N3CC4(c5nc6ncc(F)cc6c(=O)[nH]5)CC3C4)CC2)cn1 [Compound 368] | < 10 nM | +++ (+++ indicate a value of at least 100) |  | > 10000 nM | < 10 nM |  |  |  | 
4 | CCc1ccc(C2CCN(C3CCN(c4ccc(C#N)cc4)CC3)C2)[nH]c1=O (single isomer, unassigned) [Compound 317a] | 10 to 100 nM | − (− indicates a value of less than 10) | 100 to 1000 nM | 1000 to 10000 nM |  |  |  |  | 
5 | CNC(=O)c1ccc(N2CCC(N3CC4(c5nc6ccccc6c(=O)[nH]5)CC3(CO)C4)CC2)cn1 [Compound 284] | < 10 nM | +++ (+++ indicate a value of at least 100) |  | > 10000 nM | < 10 nM |  |  |  | 
6 | CNC(=O)c1ccc(N2CCC(N3CCC(c4nc5onc(C(F)(F)F)c5c(=O)[nH]4)C3)CC2)cn1 (single isomer, unassigned) [Compound 176a] |  | + (+ indicates a value of 10 to less than 50) |  |  |  | 100 to 1000 nM | 100 to 1000 nM | > 10000 nM | 
7 | CNC(=O)c1ccc(N2CCC(N3CCCC(c4ccc(OC)c(=O)[nH]4)C3)CC2)cn1 (single isomer, unassigned) [Compound 147b] |  | − (− indicates a value of less than 10) |  |  |  | 1000 to 10000 nM | 1000 to 10000 nM | > 10000 nM | 
8 | CNC(=O)c1ccc(N2CCC(CN3CCC(c4nc5ccccc5c(=O)[nH]4)CC3)C2)cn1 (single isomer, unassigned) [Compound 50a] |  | + (+ indicates a value of 10 to less than 50) |  |  |  | 10 to 100 nM | 10 to 100 nM | 1000 to 10000 nM | 
9 | CNC(=O)c1ccc(N2CCC(N3CCC(c4nc5ccc(F)c(F)c5c(=O)[nH]4)C3)CC2)cn1 (single isomer, unassigned) [Compound 222b] | < 10 nM | +++ (+++ indicate a value of at least 100) | < 10 nM | 10 to 100 nM |  |  |  |  | 
10 | CNC(=O)c1ccc(N2CCC(N3CCC(c4cc5ncc(F)cc5c(=O)[nH]4)C3)CC2)cn1 (single isomer, unassigned) [Compound 315a] | < 10 nM | +++ (+++ indicate a value of at least 100) | < 10 nM | 100 to 1000 nM |  |  |  |  | 
11 | CNC(=O)c1ccc(N2CCC(N3CCC(c4nc5onc(C)c5c(=O)[nH]4)C3)CC2)cn1 (single isomer, unassigned) [Compound 149a] |  | + (+ indicates a value of 10 to less than 50) |  |  |  | 100 to 1000 nM | 100 to 1000 nM | > 10000 nM | 
12 | CNC(=O)c1ccc(N2CCC(N3CC4(c5nc6ccc(F)cc6c(=O)[nH]5)CC3C4)CC2)c(C#N)n1 [Compound 387] | < 10 nM | +++ (+++ indicate a value of at least 100) |  | 100 to 1000 nM | < 10 nM |  |  |  | 
13 | CNC(=O)c1cc(F)c(N2CCC(N3CCC(c4cc5ccc(F)cc5c(=O)[nH]4)C3)CC2)cn1 (racemic) [Compound 235rac] | < 10 nM | + (+ indicates a value of 10 to less than 50) | < 10 nM | 10 to 100 nM |  |  |  |  | 
14 | CNC(=O)c1ccc(N2CCC(N3CCC(c4[nH]c(=O)c5ccccc5c4C(F)(F)F)C3)CC2)cn1 (single isomer, unassigned) [Compound 404b] | < 10 nM | +++ (+++ indicate a value of at least 100) | < 10 nM | 1000 to 10000 nM |  |  |  |  | 
15 | CNC(=O)c1ccc(N2CCC(N3CC(c4nc5ccccc5c(=O)[nH]4)C3)CC2)cn1 [Compound 27] |  | + (+ indicates a value of 10 to less than 50) |  |  |  | 10 to 100 nM |  | 1000 to 10000 nM | 10 to 100 nM
16 | CCc1ccc(C2CCN(C3CCN(c4ccc(C(=O)NCC(F)F)nc4F)CC3)C2)[nH]c1=O (single isomer, unassigned) [Compound 398a] | < 10 nM | +++ (+++ indicate a value of at least 100) | < 10 nM | 1000 to 10000 nM |  |  |  |  | 
17 | CNC(=O)c1ccc(N2CCC(N3CCC(c4ccc(CC(F)(F)F)c(=O)[nH]4)C3)CC2)cn1 (single isomer, unassigned) [Compound 188a] |  | + (+ indicates a value of 10 to less than 50) |  |  |  | 100 to 1000 nM | 100 to 1000 nM | > 10000 nM | 
18 | CNC(=O)c1ccc(N2CCC(N3CCC(c4nc5[nH]nc(C(F)(F)F)c5c(=O)[nH]4)C3)CC2)c(F)n1 (single isomer, unassigned) [Compound 267b] | < 10 nM | +++ (+++ indicate a value of at least 100) | < 10 nM | 10 to 100 nM |  |  |  |  | 
19 | CNC(=O)c1ccc(N2CCC(N3CCC(c4nc5ccccc5c(=O)[nH]4)C3)CC2)c(Cl)n1 (racemic) [Compound 104rac] |  | +++ (+++ indicate a value of at least 100) |  |  |  | < 10 nM | < 10 nM | 1000 to 10000 nM | 
20 | CNC(=O)c1ccc(N2CCC(N3CCC(c4ccc(Cl)c(=O)[nH]4)C3)CC2)cn1 (single isomer, unassigned) [Compound 201b] |  | +++ (+++ indicate a value of at least 100) |  |  |  | < 10 nM | < 10 nM | 1000 to 10000 nM | 
21 | CNC(=O)c1ccc(N2CCC(N3CCC(c4cc5c(c(C(F)(F)F)nn5C)c(=O)[nH]4)C3)CC2)c(F)n1 (single isomer, unassigned) [Compound 407a] | 10 to 100 nM | ++ (++ indicates a value of 50 to less than 100) | < 10 nM | 100 to 1000 nM |  |  |  |  | 
22 | CNC(=O)c1ccc(N2CCC(N3CCC(c4ccc(CC(F)(F)F)c(=O)[nH]4)C3)CC2)cn1 (single isomer, unassigned) [Compound 188b] |  | +++ (+++ indicate a value of at least 100) |  |  |  | < 10 nM | < 10 nM | 100 to 1000 nM | 
23 | CCc1ccc(C2CCN(C3CCN(c4ccc(C(=O)NC)nc4)CC3)C2)[nH]c1=O (single isomer, unassigned) [Compound 72a] |  | +++ (+++ indicate a value of at least 100) |  |  |  | 10 to 100 nM | 10 to 100 nM | 1000 to 10000 nM | 
24 | CNC(=O)c1ccc(N2CCC(N3CCC(c4cnc(C(F)(F)F)c(=O)[nH]4)C3)CC2)cn1 (single isomer, unassigned) [Compound 279b] | 1000 to 10000 nM | − (− indicates a value of less than 10) | 1000 to 10000 nM | > 10000 nM |  |  |  |  | 
25 | CNC(=O)c1ncc(N2CCC(N3CCC(c4cc5ccc(F)cc5c(=O)[nH]4)C3)CC2)c(C(F)(F)F)n1 (single isomer, unassigned) [Compound 266b] | 10 to 100 nM | +++ (+++ indicate a value of at least 100) | 10 to 100 nM | > 10000 nM |  |  |  |  | 
26 | CNC(=O)c1ccc(N2CCC(N3CCC(c4nc5c(c(=O)[nH]4)CN(C)C5)C3)CC2)cn1 (racemic) [Compound 294rac] | 100 to 1000 nM | − (− indicates a value of less than 10) | 100 to 1000 nM | > 10000 nM |  |  |  |  | 
27 | O=C(NC1CC1)c1ncc(N2CCC(N3CC4(c5nc6ccc(F)cc6c(=O)[nH]5)CC3C4)CC2)cc1F [Compound 411] | < 10 nM | +++ (+++ indicate a value of at least 100) |  | 100 to 1000 nM | < 10 nM |  |  |  | 
28 | O=C(NCC(F)(F)F)c1ccc(N2CCC(N3CCCC(c4nc5ccccc5c(=O)[nH]4)C3)CC2)cn1 (single isomer, unassigned) [Compound 115b] |  | +++ (+++ indicate a value of at least 100) |  |  |  | 10 to 100 nM | 10 to 100 nM | 1000 to 10000 nM | 
